Patent US8952024B2, “Herbicidal pyrimidone derivatives” (E I du Pont de Nemours and Company, priority 2009, dated 2015)

Legend:
Type in all cases: in vivo
[1] = system: chickweed (Stellaria media); assay: Test B postemergence plant response; conditions: Postemergence
Method in brief: (§1)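 Plants grown in peat/vermiculite medium were sprayed postemergence at 2–18 cm height (1- to 4-leaf stage). After 13–15 days in the greenhouse, response was rated visually against untreated controls on a 0–100 scale (0 no effect, 100 complete control).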

[2] = system: winter barley (Hordeum vulgare); assay: Test B postemergence plant response; conditions: Postemergence
Method in brief: as §1

[3] = system: windgrass (Apera spica-venti); assay: Test B postemergence plant response; conditions: Postemergence
Method in brief: as §1

[4] = system: canarygrass (Phalaris minor); assay: Test B postemergence plant response; conditions: Postemergence
Method in brief: as §1

[5] = system: wheat (Triticum aestivum); assay: Test A pre-/postemergence plant response; conditions: for Wheat plant response rating: visual injury, 0 to 100 scale (0 no effect, 100 complete control), approx. ten days
Method in brief: (§2)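 Approximately ten days after concurrent pre- and postemergence spraying in a greenhouse, plants were compared with untreated controls and rated visually for injury, 0 = no effect to 100 = complete control. Preemergence spray was directed onto loam/sand soil; postemergence targeted 1–2 leaf seedlings.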

[6] = system: velvetleaf (Abutilon theophrasti); assay: Test A pre-/postemergence plant response; conditions: for Velvetleaf plant response rating: visual injury, 0 to 100 scale (0 no effect, 100 complete control), approx. ten days
Method in brief: as §2

corn (Zea mays) = assay: Test A pre-/postemergence plant response; conditions: for Corn plant response rating: visual injury, 0 to 100 scale (0 no effect, 100 complete control), approx. ten days
Method in brief: as §2

[7] = system: barnyardgrass (Echinochloa crus-galli); assay: Test A pre-/postemergence plant response; conditions: for Barnyardgrass plant response rating: visual injury, 0 to 100 scale (0 no effect, 100 complete control), approx. ten days
Method in brief: as §2

[8] = system: giant foxtail (Setaria faberii); assay: Test A pre-/postemergence plant response; conditions: for Foxtail, Giant plant response rating: visual injury, 0 to 100 scale (0 no effect, 100 complete control), approx. ten days
Method in brief: as §2

[9] = system: large crabgrass (Digitaria sanguinalis); assay: Test A pre-/postemergence plant response; conditions: for Crabgrass, Large plant response rating: visual injury, 0 to 100 scale (0 no effect, 100 complete control), approx. ten days
Method in brief: as §2

[10] = system: morningglory (Ipomoea spp.); assay: Test A pre-/postemergence plant response; conditions: for Morningglory plant response rating: visual injury, 0 to 100 scale (0 no effect, 100 complete control), approx. ten days
Method in brief: as §2

[11] = system: pigweed (Amaranthus retroflexus); assay: Test A pre-/postemergence plant response; conditions: for Pigweed plant response rating: visual injury, 0 to 100 scale (0 no effect, 100 complete control), approx. ten days
Method in brief: as §2

[12] = 31 g ai/ha, 0 to 100 scale (0 no effect, 100 complete control)
[13] = 62 g ai/ha, scale 0 to 100 (0 no effect, 100 complete control)
[14] = 125 g ai/ha, scale 0 (no effect) to 100 (complete control), 13 to 15 days
[15] = 250 g ai/ha, scale 0 to 100 (0 no effect, 100 complete control), 13 to 15 days
[16] = Postemergence, 125 g ai/ha, 0 to 100 scale where 0 is no effect and 100 is complete control
[17] = Preemergence, 125 g ai/ha, 0 to 100 scale, 0 = no effect, 100 = complete control
[18] = Preemergence, 500 g ai/ha, 0 to 100 scale, 0 = no effect, 100 = complete control

SMILES: COCCCn1c(-c2cccc(F)c2)ncc(C(=O)C2=C(O)C3CCC(C3)C2=O)c1=O (centres unmarked) [Compound 238]
- Plant response rating, Chickweed [1, 12]: 80
- Plant response rating, Chickweed [1, 13]: 90
- Plant response rating, Chickweed [1, 14]: 100
- Plant response rating, Chickweed [1, 15]: 100
- Plant response rating, Barley [2, 12]: 10
- Plant response rating, Barley [2, 13]: 30
- Plant response rating, Barley [2, 14]: 35
- Plant response rating, Barley [2, 15]: 40
- Plant response rating, Windgrass [3, 12]: 45
- Plant response rating, Windgrass [3, 13]: 70
- Plant response rating, Windgrass [3, 14]: 85
- Plant response rating, Windgrass [3, 15]: 95
- Plant response rating, Canarygrass [4, 12]: 20
- Plant response rating, Canarygrass [4, 13]: 25
- Plant response rating, Canarygrass [4, 14]: 30
- Plant response rating, Canarygrass [4, 15]: 30
- Plant response rating, Wheat [5, 16]: 50
- Wheat plant response rating ([5]; Postemergence, 500 g ai/ha): 80
- Plant response rating, Wheat [5, 17]: 0
- Plant response rating, Wheat [5, 18]: 40
- Plant response rating, Velvetleaf [6, 16]: 100
- Velvetleaf plant response rating ([6]; Postemergence, 500 g ai/ha): 100
- Plant response rating, Velvetleaf [6, 17]: 90
- Plant response rating, Velvetleaf [6, 18]: 100
- Plant response rating, Corn (corn (Zea mays); [16]): 40
- Corn plant response rating (corn (Zea mays); Postemergence, 500 g ai/ha): 80
- Plant response rating, Corn (corn (Zea mays); [17]): 0
- Plant response rating, Corn (corn (Zea mays); [18]): 50
- Plant response rating, Barnyardgrass [7, 16]: 100
- Barnyardgrass plant response rating ([7]; Postemergence, 500 g ai/ha): 100
- Plant response rating, Barnyardgrass [7, 17]: 70
- Plant response rating, Barnyardgrass [7, 18]: 100
- Plant response rating, Foxtail, Giant [8, 16]: 90
- Foxtail, Giant plant response rating ([8]; Postemergence, 500 g ai/ha): 100
- Plant response rating, Foxtail, Giant [8, 17]: 50
- Plant response rating, Foxtail, Giant [8, 18]: 90
- Plant response rating, Crabgrass, Large [9, 16]: 90
- Crabgrass, Large plant response rating ([9]; Postemergence, 500 g ai/ha): 100
- Plant response rating, Crabgrass, Large [9, 17]: 90
- Plant response rating, Crabgrass, Large [9, 18]: 100
- Plant response rating, Morningglory [10, 16]: 100
- Morningglory plant response rating ([10]; Postemergence, 500 g ai/ha): 100
- Plant response rating, Morningglory [10, 17]: 40
- Plant response rating, Morningglory [10, 18]: 90
- Plant response rating, Pigweed [11, 16]: 100
- Pigweed plant response rating ([11]; Postemergence, 500 g ai/ha): 100
- Plant response rating, Pigweed [11, 17]: 100
- Plant response rating, Pigweed [11, 18]: 100

SMILES: CCn1c(-c2ccccc2)ncc(C(=O)C2=C(O)C3CCC(C3)C2=O)c1=O (centres unmarked) [Compound 239]
- Plant response rating, Chickweed [1, 12]: 90
- Plant response rating, Chickweed [1, 13]: 98
- Plant response rating, Chickweed [1, 14]: 98
- Plant response rating, Chickweed [1, 15]: 100
- Plant response rating, Barley [2, 12]: 0
- Plant response rating, Barley [2, 13]: 0
- Plant response rating, Barley [2, 14]: 5
- Plant response rating, Barley [2, 15]: 5
- Plant response rating, Windgrass [3, 12]: 20
- Plant response rating, Windgrass [3, 13]: 30
- Plant response rating, Windgrass [3, 14]: 30
- Plant response rating, Windgrass [3, 15]: 70
- Plant response rating, Canarygrass [4, 12]: 0
- Plant response rating, Canarygrass [4, 13]: 0
- Plant response rating, Canarygrass [4, 14]: 0
- Plant response rating, Canarygrass [4, 15]: 0
- Plant response rating, Wheat [5, 16]: 0
- Wheat plant response rating ([5]; Postemergence, 500 g ai/ha): 0
- Plant response rating, Wheat [5, 17]: 0
- Plant response rating, Wheat [5, 18]: 30
- Plant response rating, Velvetleaf [6, 16]: 100
- Velvetleaf plant response rating ([6]; Postemergence, 500 g ai/ha): 100
- Plant response rating, Velvetleaf [6, 17]: 80
- Plant response rating, Velvetleaf [6, 18]: 100
- Plant response rating, Corn (corn (Zea mays); [16]): 30
- Corn plant response rating (corn (Zea mays); Postemergence, 500 g ai/ha): 30
- Plant response rating, Corn (corn (Zea mays); [17]): 0
- Plant response rating, Corn (corn (Zea mays); [18]): 0
- Plant response rating, Barnyardgrass [7, 16]: 90
- Barnyardgrass plant response rating ([7]; Postemergence, 500 g ai/ha): 90
- Plant response rating, Barnyardgrass [7, 17]: 20
- Plant response rating, Barnyardgrass [7, 18]: 80
- Plant response rating, Foxtail, Giant [8, 16]: 70
- Foxtail, Giant plant response rating ([8]; Postemergence, 500 g ai/ha): 80
- Plant response rating, Foxtail, Giant [8, 17]: 20
- Plant response rating, Foxtail, Giant [8, 18]: 70
- Plant response rating, Crabgrass, Large [9, 16]: 80
- Crabgrass, Large plant response rating ([9]; Postemergence, 500 g ai/ha): 90
- Plant response rating, Crabgrass, Large [9, 17]: 70
- Plant response rating, Crabgrass, Large [9, 18]: 100
- Plant response rating, Morningglory [10, 16]: 100
- Morningglory plant response rating ([10]; Postemergence, 500 g ai/ha): 100
- Plant response rating, Morningglory [10, 18]: 50
- Plant response rating, Pigweed [11, 16]: 80
- Pigweed plant response rating ([11]; Postemergence, 500 g ai/ha): 90
- Plant response rating, Pigweed [11, 17]: 70
- Plant response rating, Pigweed [11, 18]: 100
